# Data: patent US5026836A, “6-sulfenamide, 6-sulfinamide and 6-sulfonamide purines, purine nucleosides, purine nucleotides, pharmaceutical compositions, and processes of making” (priority 1988, dated 1991)
# Read-outs that look alike come from different tables or passages of the source. Starred links: 1 amine or outer side, 2 acyl side, 3 side chain; linkers in the order of their positions; H or OH if unused. Positions of bridges follow the written chain, without caps; N, C: chain ends. Non-standard residues stand in square brackets, D forms with d. Residues, ends and D or L forms follow the SMILES beside them. Chains are numbered I, II in the order given. Actinocin(9to1) = Cc1c2oc3c(C)ccc(C(=O)[*:1])c3nc-2c(C(=O)[*:2])c(N)c1=O; NMeV = CN[C@H](C(=O)O)C(C)C; Sar = CNCC(=O)O
# How the values were obtained:
# [1] = Toxicity / maximum tolerated dosage in mice; type: in vivo; conditions: mouse, in vivo, ip, single QD day 1 ip, read-out: Max. tolerated dosage
# Protocol: In Example N other compounds of the invention were tested against L1210 cells. […] Activity in Table 14-a is tabulated as both increases in life span and as cells surviving treatment and that in table 14-b as T/C.
# [2] = Solubility (maximum solubility); type: physicochemical
# [3] = system: Human Colon Adenocarcinoma CX-1; conditions: data from Goldin et al 1981; activity indicated at ≤20; cited from earlier work
# [4] = system: L1210 cells; assay: Life span of BDF1 mice inoculated ip with 10^6 L1210 leukemia cells; type: in vivo, mouse; conditions: for T/C: single QD day 1 ip (Table 14-b); for Increased life span: qd days 1,3,5,7; for T/C (%): ip day 1, Enantiomer A 37 mg/kg, Enantiomer B 173 mg/kg; for relative activity of the two enantiomers (words): mouse, in vivo
# Protocol: As illustrative examples of use of the compounds of the invention the following examples are given. […] These standard tests utilize protocols developed under the auspices of the Developmental Therapeutics Program, Division of Cancer Treatment, National Cancer Institute, Bethesda, Md., U.S.A. Except as otherwise indicated the tests conform to these protocols and are evaluated utilizing criteria defined by the protocols.
# (§1) Values below 25% are considered capable of producing effective therapy, those below 10% are considered good and those below 5% are considered very good. This expresses the percent of the cells which survived treatment based upon the original cells in the inoculum. Those tests expressed as increases in life span (% ILS) indicate the increased life span of the drug treated group compared to a control group.
# (§2) As an indicator of reproducible activity, compounds of the invention and other known cancer chemotherapeutic agents were screened against L1210 lymphoid leukemia in vivo utilizing the mouse as a test species. Normal NCI protocols for this test require 10^5 seed cells of the L1210 cell line.
# Cytosine Arabinoside must be given every three hours.
# Mice were inoculated intraperitoneally on day 0 with a million cells of murine leukemia L1210. Drug was given qd days 1, 4 and 7. Increased life span is the mean increase in the treated group presented as a percentage of the mean life span of control mice.
# Mice were inoculated intraperitoneally on day 0 with a million cells of murine leukemia L1210. Drugs were given qd days 1, 3, 5 and 7. Increased life span is presented as a percentage of the mean life span of control mice.
# [5] = system: L1210 cells; assay: Bioassay of viable L1210 cells in brain after intracranial inoculation and ip drug; type: in vivo, mouse; conditions: 24 hr after single ip dose (mg/kg): Methotrexate 12, Adriamycin 3, 6-Mercaptopurine 160, Cytosine Arabinoside 1200, Cyclophosphamide 140, Compound 19 173, Tiazofurin 1200, BCNU 20
# Description: BDF1 mice were inoculated intracranially on day 0 with 1×10^5 L1210 cells. […] 24 hr after drug delivery the brains were collected, homogenized, and injected ip into untreated mice. Each mouse received the equivalent of half a brain. Thereafter, life span was monitored and, using inoculum-response data as a base of comparison, estimates were made of the numbers of viable cells in treated and control brains.
# [6] = system: L1210 cells; assay: L1210 cells surviving treatment (% of original inoculum); type: in vivo, mouse; conditions: for L1210 cells surviving treatment (% of original inoculum): ip day 1, Enantiomer A 37 mg/kg, Enantiomer B 173 mg/kg
# Description: as §1
# as §2, with “line. However for the purposes of tests with the L1210 cell line in testing the compounds of the invention for antitumor activity, a log greater, i.e. 10^6 cells were utilized.” for “line.”
# Tables 2-a and 2-b illustrate a dose response for Compound 19 against L1210 inoculated mice expressed as both increased life span compared to control and as the number of cells of the original inoculum surviving drug treatment. As is evident from the various regimens of drug treatment shown in Tables 2-a and 2-b, effective therapeutic effects are noted and a dose response to Compound 19 is evident. […] Cytosine Arabinoside must be given every three hours. Test results are given utilizing standard protocols based on mean survival time and are expressed as T/C percentages (treated animals/control animals).
compound,measurement,setting,value
"NS(=O)(=O)c1ncnc2c1ncn2[C@@H]1O[C@H](CO)[C@@H](O)[C@@H]1O [Compound 12, 9-β-D-Arabinofuranosyl-9H-purine-6-sulfonamide]",MTD,[1]; L1210-inoculated BDF1 mice,173 mg/kg
same,Max. sol. dosage,[2],173 mg/kg
N[C@@H](Cc1ccc(N(CCCl)CCCl)cc1)C(=O)O [Melphalan],Activity rating δT/δC,[3],101
"NC(=O)c1csc([C@@H]2O[C@H](CO)[C@@H](O)[C@H]2O)n1 [Tiazofurin, reference compound]",% ILS,"[4]; single agent day 1, Compound 19 173 mg/kg, Tiazofurin 22 mg/kg (Table 13)",44%
same,Residual cells (% of control brain),[5],2.9%
"Cc1c2oc3c(C)ccc(C(=O)N[C@@H]4C(=O)N[C@H](C(C)C)C(=O)N5CCC[C@H]5C(=O)N(C)CC(=O)N(C)[C@@H](C(C)C)C(=O)O[C@@H]4C)c3nc-2c(C(=O)N[C@@H]2C(=O)N[C@H](C(C)C)C(=O)N3CCC[C@H]3C(=O)N(C)CC(=O)N(C)[C@@H](C(C)C)C(=O)O[C@@H]2C)c(N)c1=O [Actinomycin D] (I: T[dV]P[Sar][NMeV] / II: T[dV]P[Sar][NMeV]; ester I:1-I:C, II:1-II:C; linker I:N-II:N via Actinocin(9to1))",Activity rating δT/δC,[3],73
O=NN(CCCl)C(=O)NC1CCCCC1 [CCNU],Activity rating δT/δC,[3],77
CO[C@@]12[C@H](COC(N)=O)C3=C(C(=O)C(C)=C(N)C3=O)N1C[C@@H]1N[C@@H]12 [Mitomycin C],Activity rating δT/δC,[3],62
"O=NN(CCCl)C(=O)NCCCl [BCNU, reference compound]",Activity rating δT/δC,[3],63
same,Residual cells (% of control brain),[5],1.6%
"Nc1nc([S+](N)[O-])c2ncn([C@@H]3O[C@H](CO)[C@@H](O)[C@@H]3O)c2n1 (stereo partly drawn) [Compound 50, 2-Amino-9-β-D-arabinofuranosyl-9H-purine-6-sulfinamide]",T/C,[4],140
same,Max. sol. dosage,[2],800 mg/kg
"NS(=O)(=O)c1ncnc2c1ccn2[C@H]1C[C@H](O)[C@@H](CO)O1 [Compound 55, 7-(2-Deoxy-β-D-erythro-pentofuranosyl)pyrrolo[2,3-d]-pyrimidine-4-sulfonamide]",T/C,[4],125
same,Max. sol. dosage,[2],288 mg/kg
"C[C@H]1O[C@@H](n2cnc3c([S+](N)[O-])nc(N)nc32)[C@H](O)[C@@H]1O (stereo partly drawn) [Compound 42, 2-Amino-9-(5-deoxy-β-D-ribofuranosyl)-9H-purine-6-sulfinamide]",T/C,[4]; NaOH vehicle,172
same,Max. sol. dosage,[2],104 mg/kg
O=C(O)CCCc1ccc(N(CCCl)CCCl)cc1 [Chlorambucil],Activity rating δT/δC,[3],60
"Nc1nc2c(ncn2[C@@H]2O[C@H](CO)[C@@H](O)[C@H]2O)c(=S)[nH]1 [6-Thioguanosine, reference compound]",Increased life span,[4]; 8.1 mg/kg/inj injected,48%
same,Increased life span,[4]; 13 mg/kg/inj injected,38%
same,Increased life span,[4]; 22 mg/kg/inj injected,42%
same,Increased life span,[4]; 37 mg/kg/inj injected,45%
same,Increased life span,[4]; 62 mg/kg/inj injected,42%
same,Increased life span,[4]; 104 mg/kg/inj injected,42%
same,Increased life span,[4]; 173 mg/kg/inj injected,52%
"O=P1(N(CCCl)CCCl)NCCCO1 (centres unmarked) [Cyclophosphamide, reference compound]",Activity rating δT/δC,[3],113
same,Residual cells (% of control brain),[5],11.5%
CC[C@]1(O)C[C@@H]2CN(CCc3c([nH]c4ccccc34)[C@@](C(=O)OC)(c3cc4c(cc3OC)N(C)[C@H]3[C@@](O)(C(=O)OC)[C@H](OC(C)=O)[C@]5(CC)C=CCN6CC[C@]43[C@@H]65)C2)C1 [Vinblastine],Activity rating δT/δC,[3],119
"Nc1nc([S+](N)[O-])c2ncn([C@@H]3O[C@H](CO)[C@@H](O)[C@H]3O)c2n1 (single isomer, unassigned) [Enantiomer A]",% ILS,"[4]; 37 mg/kg/inj bid day 1, total A 70.94, B 1.26, contaminant 1.80 mg/kg",44%
same,% ILS,"[4]; 37 mg/kg/inj printed qid day 1, total A 177.35, B 3.15, contaminant 4.50 mg/kg",0%
same,% ILS,"[4]; 37 mg/kg/inj qd day 1, total A 35.47, B 0.63, contaminant 0.90 mg/kg",22%
same,% ILS,"[4]; 37 mg/kg/inj qid day 1, total A 141.88, B 2.52, contaminant 3.60 mg/kg",72%
same,% ILS,"[4]; 37 mg/kg/inj tid day 1, total A 106.41, B 1.89, contaminant 2.70 mg/kg",72%
same,T/C (%),[4],108.7%
same,relative activity of the two enantiomers (words),[4],greater activity with respect to enantiomer B because of solubility differences
same,relative activity of the two enantiomers (words),[4]; listed as enantiomer A,comparable activity
same,solubility,[2],about 3.7 mg per ml
same,Cells surviving treatment (% of original inoc.),"[6]; 37 mg/kg/inj bid day 1, total A 70.94 mg/kg",10%
same,Cells surviving treatment (% of original inoc.),"[6]; 37 mg/kg/inj qd day 1, total A 35.47 mg/kg",64%
same,Cells surviving treatment (% of original inoc.),"[6]; 37 mg/kg/inj qid day 1, total A 141.88 mg/kg",1%
same,Cells surviving treatment (% of original inoc.),"[6]; 37 mg/kg/inj tid day 1, total A 106.41 mg/kg",1%
same,L1210 cells surviving treatment (% of original inoculum),[6],182.8%
O=NN(CCCl)C(=O)N[C@H]1C(O)O[C@H](CO)[C@@H](O)[C@@H]1O (some centres unmarked) [Chlorozotocin],Activity rating δT/δC,[3],75
"NSc1nc(N)nc2c1ncn2[C@H]1C[C@H](O)[C@@H](CO)O1 [Compound 45, 2-Amino-9-(2-deoxy-β-D-erythro-pentofuranosyl)-9H-purine-6-sulfenamide]",T/C,[4],172
same,Max. sol. dosage,[2],480 mg/kg
CNNCc1ccc(C(=O)NC(C)C)cc1 [Procarbazine],Activity rating δT/δC,[3],60
CN(C)c1nc(N(C)C)nc(N(C)C)n1 [Hexamethylmelamine],Activity rating δT/δC,[3],85
N.N.[Cl][Pt][Cl] [Cis-Platinum],Activity rating δT/δC,[3],66
"C[C@H]1O[C@@H](n2cnc3c(S(N)(=O)=O)nc(N)nc32)[C@H](O)[C@@H]1O [Compound 43, 2-Amino-9-(5-deoxy-β-D-ribofuranosyl)-9H-purine-6-sulfonamide]",T/C,[4],130
same,Max. sol. dosage,[2],480 mg/kg
CC1CCC(NC(=O)N(CCCl)N=O)CC1 (centres unmarked) [Methyl CCNU],Activity rating δT/δC,[3],83
"NSc1nc(N)nc2nc[nH]c12 [Compound 2, 2-Aminopurine-6-sulfenamide]",MTD,"[1]; DMSO vehicle, BDF1 mice",37 mg/kg
same,MTD,"[1]; NaOH vehicle, BDF1 mice",104 mg/kg
"CN(Cc1cnc2nc(N)nc(N)c2n1)c1ccc(C(=O)N[C@@H](CCC(=O)O)C(=O)O)cc1 [Methotrexate, reference compound]",Activity rating δT/δC,[3],66
same,Residual cells (% of control brain),[5],97%
O=c1[nH]cc(F)c(=O)[nH]1 [5-Fluorouracil],Activity rating δT/δC,[3],88
CC[C@]1(O)C[C@H]2CN(CCc3c([nH]c4ccccc34)[C@@](C(=O)OC)(c3cc4c(cc3OC)N(C=O)[C@H]3[C@@](O)(C(=O)OC)[C@H](OC(C)=O)[C@]5(CC)C=CCN6CC[C@]43[C@@H]65)C2)C1 [Vincristine],Activity rating δT/δC,[3],89
Nc1nc2nc[nH]c2c(=S)[nH]1 [6-Thioguanine],Activity rating δT/δC,[3],81
Bleomycin,Activity rating δT/δC,[3],51
CN(C)/N=N/c1[nH]cnc1C(N)=O [DTIC],Activity rating δT/δC,[3],92
"COc1cccc2c1C(=O)c1c(O)c3c(c(O)c1C2=O)C[C@@](O)(C(=O)CO)C[C@@H]3O[C@H]1C[C@H](N)[C@H](O)[C@H](C)O1 [Adriamycin, reference compound]",Activity rating δT/δC,[3],72
same,Residual cells (% of control brain),[5],89.5%
"Nc1nc([S+](N)[O-])c2ncn([C@@H]3O[C@H](CO)[C@@H](O)[C@H]3O)c2n1 (single isomer, unassigned) [Enantiomer B]",T/C (%),[4],144.9%
same,relative activity of the two enantiomers (words),[4],comparable activity
same,solubility,[2],about 17.3 mg per ml
same,L1210 cells surviving treatment (% of original inoculum),[6],7.5%
